What is called IC50 is the concentration needed to halve the response being measured.

Format in all cases: biochemical, HIV-1 group M subtype B
Assay [1] has as its target T1, HIV-1 RT-associated RNase H activity, E224A RT (Human immunodeficiency virus type 1 group M subtype B, UniProt P04585, E811A).
T1 construct: The 1:1 ration between the p66/p51 subunits was also verified; made in house; host or cells: E. coli M15
Put plainly: RNase H activity assay, E224A RT. Conditions: for Fold of increase of RNase H IC50 with respect to wt RT: E224A RT. The method, then:
(§1) HIV RT-associated RNase H activity was measured as described in 100 μL reaction volume containing 50 mM Tris-HCl buffer pH 7.8, 6 mM MgCl2, 1 mM dithiothreitol (DTT), 80 mM KCl, 0.25 μM hybrid RNA/DNA 5'-GAUCUGAGCCUGGGAGCU-Fluorescin-3' (HPLC, dry, QC: Mass Check) (available from Metabion) 5'-Dabcyl-AGCTCCCAGGCTCAGATC-3'(HPLC, dry, QC: Mass Check), increasing concentrations of inhibitors, whose dilution were made in water, and different amount of enzymes according to a linear range of dose-response curve: 20 ng of WT RT; 60 ng K103N RT; 37.5 ng V106A RT; 75 ng V108A RT; 5 ng Y181C RT; 50 ng Y188A RT; 30 ng Y188L RT; 100 ng E224A RT; 37.5 ng P225A RT; 20 ng P226A RT; 18 ng F227A RT; 30 ng L228A RT; 30 ng W229A RT; 10 ng M230A RT; 30 ng G231A RT; 62.5 ng N474A RT; 1 μg Y501A RT; 100 ng A502F RT; 37.5 ng A508V RT; 38 ng HIV-1 group O RT. The reaction mixture was incubated for 1 h at 37°C, stopped by addition of EDTA and products were measured with a multilabel counter plate reader Victor 3 (Perkin Elmer model 1420–051) equipped with filters for 490/528 nm (excitation/emission wavelength)

The target of assay [2] is T2, HIV-1 RT-associated RNase H activity, W229A RT (Human immunodeficiency virus type 1 group M subtype B, UniProt P04585, W816A).
T2 construct: The 1:1 ration between the p66/p51 subunits was also verified; made in house; host or cells: E. coli M15
Put plainly: RNase H activity assay, W229A RT. Conditions: for Fold of increase of RNase H IC50 with respect to wt RT: W229A RT. The protocol:
as §1

In assay [3] the target is T3, HIV-1 RT-associated RNase H activity, N474A RT (Human immunodeficiency virus type 1 group M subtype B, UniProt P04585, N1061A).
T3 construct: The 1:1 ration between the p66/p51 subunits was also verified; made in house; host or cells: E. coli M15
Put plainly: biochemical. The protocol:
as §1, with “5'-[…]-Fluorescin-3'” for “5'-GAUCUGAGCCUGGGAGCU-Fluorescin-3'”, “5'-Dabcyl-[…]-3'(HPLC,” for “5'-Dabcyl-AGCTCCCAGGCTCAGATC-3'(HPLC,”

For assay [4], the target named is T4, HIV-1 RT-associated RNase H activity, Y501A RT (Human immunodeficiency virus type 1 group M subtype B, UniProt P04585, Y1088A).
T4 construct: The 1:1 ration between the p66/p51 subunits was also verified; made in house; host or cells: E. coli M15
Put plainly: biochemical. The method, then:
as §1, with “5'-[…]-Fluorescin-3'” for “5'-GAUCUGAGCCUGGGAGCU-Fluorescin-3'”, “5'-Dabcyl-[…]-3'(HPLC,” for “5'-Dabcyl-AGCTCCCAGGCTCAGATC-3'(HPLC,”

Assay [5] concerns the target T5, HIV-1 RT-associated RNase H activity, K103N RT (Human immunodeficiency virus type 1 group M subtype B, UniProt P04585, K690N).
T5 construct: The 1:1 ration between the p66/p51 subunits was also verified; made in house; host or cells: E. coli M15
The assay can be described thus: RNase H activity assay, K103N RT. The method, then:
as §1

Assay [6] deals with T6, HIV-1 RT-associated RNase H activity, A502F RT (Human immunodeficiency virus type 1 group M subtype B, UniProt P04585, A1089F).
T6 construct: The 1:1 ration between the p66/p51 subunits was also verified; made in house; host or cells: E. coli M15
The assay can be described thus: RNase H activity assay, A502F RT. The settings on record: for Fold of increase of RNase H IC50 with respect to wt RT: A502F RT. The protocol: as §1

For assay [7], the target named is T7, HIV-1 RT-associated RNase H activity, G231A RT (Human immunodeficiency virus type 1 group M subtype B, UniProt P04585, G818A).
T7 construct: The 1:1 ration between the p66/p51 subunits was also verified; made in house; host or cells: E. coli M15
The assay can be described thus: RNase H activity assay, G231A RT. The method, then:
as §1

Assay [8] concerns HIV-1 RT-associated RNase H activity, G231A RT. Put plainly: RNase H activity assay, G231A RT. Conditions: G231A RT. The method, then:
as §1

Assay [9] concerns the target T8, HIV-1 RT-associated RNase H activity, L228A RT (Human immunodeficiency virus type 1 group M subtype B, UniProt P04585, L815A).
T8 construct: The 1:1 ration between the p66/p51 subunits was also verified; made in house; host or cells: E. coli M15
The assay can be described thus: RNase H activity assay, L228A RT. Conditions: for Fold of increase of RNase H IC50 with respect to wt RT: L228A RT. The method, then: as §1

Assay [10] concerns the target T9, HIV-1 RT-associated RNase H activity, V106A RT (Human immunodeficiency virus type 1 group M subtype B, UniProt P04585, V693A).
T9 construct: The 1:1 ration between the p66/p51 subunits was also verified; made in house; host or cells: E. coli M15
Put plainly: RNase H activity assay, V106A RT. The protocol: as §1

The target in assay [11] is T10, HIV-1 RT-associated RNase H activity, M230A RT (Human immunodeficiency virus type 1 group M subtype B, UniProt P04585, M817A).
T10 construct: The 1:1 ration between the p66/p51 subunits was also verified; made in house; host or cells: E. coli M15
Put plainly: RNase H activity assay, M230A RT. The method, then:
as §1

Assay [12] relates to HIV-1 RT-associated RNase H activity, M230A RT. The assay can be described thus: RNase H activity assay, M230A RT. Conditions: M230A RT. The method, then:
as §1

Assay [13] addresses T11, HIV-1 RT-associated RNase H activity, Y188A RT (Human immunodeficiency virus type 1 group M subtype B, UniProt P04585, Y775A).
T11 construct: The 1:1 ration between the p66/p51 subunits was also verified; made in house; host or cells: E. coli M15
Put plainly: RNase H activity assay, Y188A RT. The settings on record: for Fold of increase of RNase H IC50 with respect to wt RT: Y188A RT. The protocol: as §1

The structures appear in SMILES notation. Where “and” joins values, the source holds several entries; their conditions need not be identical. Equal values may be shown once. Read-outs that look alike come from different tables or passages of the source.

With `CC(C)c1ccc(O)c(=O)c(O)c1` [BTP, β-thujaplicinol, reference compound], the half-inhibitory concentration (IC50) turned out to be 150 ± 30 nM in assay [1]; 150 ± 80 nM in assay [2]; 920 ± 10 nM in assay [3]; 70 ± 2 nM in [4]; 220 ± 80 nM in [5] (K103N RT, read-out: IC50 RNase H); 170 ± 30 nM in assay [6]. Besides, the concentration for half-maximal inhibition (IC50) in assay [7] was found to be 250 ± 30 nM; in assay [9], 100 ± 60 nM; in assay [10] it was 160 ± 30 nM; in assay [11], 140 ± 40 nM; in [13] it was 190 ± 80 nM. The “Fold of increase of RNase H IC50 with respect to wt RT” value (from here on “Fold of increase of RNase H IC50”) in [1] was found to be 0.8; in [2], 0.8; in assay [3] (N474A RT), 4.8; in assay [4] (Y501A RT), 0.4; in [6], 0.9; in assay [8], 1.3. Besides, the entries for the “Fold of increase of RNase H IC50” value in [9], in [12] and in [13] were 0.5, 0.7 and 1.0, respectively.
On to `N#Cc1ccc(-c2csc(NN=C3C(=O)Nc4ccccc43)n2)cc1` [RMNC6, (Z)-4-(2-(2-(2-oxoindolin-3-ylidene)hydrazinyl)thiazol-4-yl)benzonitrile], for which the half-maximal inhibitory concentration (IC50) was 7900 ± 1100 nM in [1]; 1900 ± 500 nM in assay [2]; greater than 100000 nM in assay [3]; greater than 100000 nM in assay [4]; 2300 ± 100 nM in assay [5]; 13000 ± 700 nM in assay [6]. Moreover, the IC50 in [7] amounted to 1700 ± 400 nM; in [9], 1500 ± 100 nM; in assay [10], 5300 ± 600 nM; in assay [11], 500 ± 100 nM; in assay [13], 3300 ± 1500 nM. For the same compound, the “Fold of increase of RNase H IC50” value was 6 and 6.1 in [1]; 1.5 in assay [2]; greater than 77 in assay [3] (N474A RT); greater than 77 in [4] (Y501A RT); 10.0 in assay [6]; 1.3 in [8]. For the same compound, the “Fold of increase of RNase H IC50” value was 1.1 in [9], 0.4 in assay [12] and 2.5 in assay [13]. Besides, the “Resistance of RNase H function” value in assay [3] (N474A RT) and in assay [4] (Y501A RT) was “full resistance” in each case.

Source of the values: article PMC4723341, “Ribonuclease H/DNA Polymerase HIV-1 Reverse Transcriptase Dual Inhibitor: Mechanistic Studies on the Allosteric Mode of Action of Isatin-Based Compound RMNC6” (PLoS ONE, 2016).
